From DBAASP
Converted amounts (≈) assume the structure as drawn. “And” between values parts separate entries of the source, which are not always exact repeats. Identical values can stand only once. One block for each compound: values may come before it.

Tests used:
Experiment in all cases: ≥ marks a high value that may be exact or a test limit, other limits are often not marked, values filed in µg/mL are converted to µM
Escherichia coli DC2 = tested on: Escherichia coli DC2
[1] = tested on: Salmonella enterica subsp. enterica serovar Typhimurium ATCC 14028s
[2] = tested on: Pseudomonas aeruginosa Z61
Candida albicans C627 = tested on: Candida albicans C627
[3] = tested on: Pseudomonas aeruginosa K799
[4] = tested on: Aeromonas salmonicida 97-4
Escherichia coli UB1005 = tested on: Escherichia coli UB1005
[5] = tested on: Salmonella enterica serovar typhimurium MS7953s
[6] = tested on: Aeromonas salmonicida 99-1
[7] = tested on: Escherichia coli CGSC 4908
[8] = tested on: Staphylococcus epidermidis C621
[9] = tested on: Staphylococcus aureus C623
[10] = tested on: Staphylococcus aureus ATCC 43300
Vibrio cholerae CUN 09 = tested on: Vibrio cholerae CUN 09
[11] = tested on: Lactobacillus delbrueckii subsp. lactis CIDCA 133
[12] = tested on: Lactobacillus delbrueckii subsp. bulgaricus CIDCA 331
[13] = tested on: Escherichia coli ATCC 43827
[14] = tested on: Escherichia coli ATCC 25922
[15] = tested on: Pseudomonas aeruginosa ATCC 9027
[16] = tested on: Pseudomonas aeruginosa ATCC 27853
[17] = tested on: Listeria monocytogenes EGD
[18] = tested on: Staphylococcus aureus ATCC 33591
[19] = tested on: Acinetobacter baumannii ATCC BAA-1605
[20] = tested on: Staphylococcus aureus ATCC 25923
[21] = tested on: Candida albicans ATCC 90029
Candida albicans = tested on: Candida albicans
Pseudomonas aeruginosa = tested on: Pseudomonas aeruginosa
[22] = tested on: Staphylococcus aureus ATCC 29213
Staphylococcus aureus = tested on: Staphylococcus aureus
Escherichia coli = tested on: Escherichia coli
[23] = tested on: Listeria monocytogenes ATCC 19114
[24] = tested on: Listeria monocytogenes ATCC 19115
Listeria monocytogenes = tested on: Listeria monocytogenes
[25] = tested on: Listeria monocytogenes NCTC 18890
[26] = tested on: Listeria monocytogenes ATCC 7644
[27] = tested on: Lacticaseibacillus rhamnosus 1.9021
[28] = tested on: Lacticaseibacillus rhamnosus 1.0936
[29] = tested on: Escherichia coli O157:H7 CICC 21530
[30] = tested on: Staphylococcus epidermidis ATCC 12228
[31] = tested on: Salmonella enterica subsp. enterica serovar Choleraesuis CVCC 503
[32] = tested on: Lacticaseibacillus rhamnosus 8014
[33] = tested on: Salmonella enterica subsp. enterica serovar Pullorum C79-13
[34] = tested on: Salmonella enterica subsp. enterica serovar Typhimurium ATCC 14028
[35] = tested on: Pseudomonas aeruginosa PAO1
[36] = tested on: Streptococcus agalactiae BNCC 185941
Escherichia coli K88 = tested on: Escherichia coli K88
[37] = tested on: Lacticaseibacillus rhamnosus 1.0911

Compound: CC[C@H](C)[C@H](NC(=O)[C@H](CC(=O)O)NC(=O)[C@H](Cc1ccccc1)NC(=O)[C@H](CC(C)C)NC(=O)CN)C(=O)N[C@@H](CCCCN)C(=O)N[C@@H](CCCCN)C(=O)N[C@H](C(=O)N[C@@H](C)C(=O)N[C@@H](CO)C(=O)N[C@H](C(=O)N[C@H](C(=O)NCC(=O)NCC(=O)N[C@@H](CC(C)C)C(N)=O)[C@@H](C)CC)C(C)C)C(C)C [GLFDIKKVASVIGGL]
MIC [11]: ≥ 50 µM | MIC [12]: 25 µM (≈ 37.9 µg/mL)

Compound: CC[C@H](C)[C@H](NC(=O)[C@H](Cc1ccccc1)NC(=O)[C@H](CCCCN)NC(=O)[C@H](CC(N)=O)NC(=O)[C@H](CC(C)C)NC(=O)[C@H](CCC(N)=O)NC(=O)CN)C(=O)N[C@@H](CCCCN)C(=O)N[C@@H](CCCCN)C(=O)N[C@@H](C)C(=O)N[C@@H](CCC(N)=O)C(=O)N[C@@H](CCCN=C(N)N)C(=O)N[C@@H](CCCCN)C(=O)N[C@@H](Cc1ccccc1)C(=O)N[C@@H](Cc1cnc[nH]1)C(=O)N[C@@H](CCC(=O)O)C(=O)N[C@@H](CCCCN)C(=O)N[C@@H](Cc1ccccc1)C(=O)N[C@@H](C)C(=O)N[C@@H](CCCCN)C(N)=O [GQLNKFIKKAQRKFHEKFAK]
MIC [13]: ≥ 209 µM | MIC [14]: 128 µM (≈ 313 µg/mL) | MIC [15]: 209 µM (≈ 512 µg/mL) | MIC [16]: 128 µM (≈ 313 µg/mL) | MIC [17]: ≥ 128 µM | MIC [18]: ≥ 209 µM | MIC [19]: ≥ 105 µM | MIC [20]: 128 µM (≈ 313 µg/mL)

Compound: CC(C)C[C@H](NC(=O)[C@H](CO)NC(=O)[C@H](Cc1cnc[nH]1)NC(=O)[C@H](CO)NC(=O)[C@H](CC(C)C)NC(=O)[C@H](CC(C)C)NC(=O)[C@@H](N)CCCCN)C(=O)N[C@@H](CC(C)C)C(=O)N[C@H](C(=O)N[C@H](C(=O)N[C@@H](CC(C)C)C(=O)N[C@@H](C)C(=O)O)[C@@H](C)O)C(C)C [KLLSHSLLVTLA]
MIC [21]: ≥ 154 µM | MIC (Candida albicans): > 154 µM | MIC [14]: 4.83 µM (≈ 6.25 µg/mL) | MIC (Pseudomonas aeruginosa): 4.83 µM (≈ 6.25 µg/mL) | MIC [22]: 4.83 µM (≈ 6.25 µg/mL) | MIC (Staphylococcus aureus): 4.83 µM (≈ 6.25 µg/mL) | MIC (Escherichia coli): 9.66 µM (≈ 12.5 µg/mL)

Compound: CC(C)C[C@H](NC(=O)CNC(=O)[C@H](CC(C)C)NC(=O)[C@H](Cc1c[nH]c2ccccc12)NC(=O)[C@H](CC(C)C)NC(=O)CNC(=O)[C@H](CC(C)C)NC(=O)[C@H](CCCN=C(N)N)NC(=O)[C@@H](N)CCCN=C(N)N)C(=O)N[C@@H](CCCN=C(N)N)C(=O)N[C@@H](CCCN=C(N)N)C(N)=O [RRLGLWLGLRR]
MIC [14]: 4 µM and 8 µM | MIC [27]: ≥ 128 µM | MIC [28]: ≥ 128 µM | MIC [29]: 8 µM (≈ 11.2 µg/mL) | MIC [30]: 128 µM (≈ 179 µg/mL) | MIC [31]: ≥ 128 µM | MIC [16]: 4 µM (≈ 5.58 µg/mL) | MIC [22]: 16 µM (≈ 22.3 µg/mL) | MIC [32]: ≥ 128 µM | MIC [33]: 2 µM (≈ 2.79 µg/mL) | MIC [34]: 32 µM (≈ 44.6 µg/mL) | MIC [35]: 8 µM (≈ 11.2 µg/mL) | MIC [36]: ≥ 128 µM | MIC [10]: 16 µM (≈ 22.3 µg/mL) | MIC (Escherichia coli K88): 2 µM (≈ 2.79 µg/mL) | MIC [37]: ≥ 64 µM

Second part, led by results:

MIC (Escherichia coli DC2): 11.6 µM (≈ 32 µg/mL) | MIC [1]: 23.3 µM (≈ 64 µg/mL) | MIC [2]: 2.91 µM (≈ 7.99 µg/mL) | MIC (Candida albicans C627): 23.3 µM (≈ 64 µg/mL) | MIC [3]: 11.6 µM (≈ 32 µg/mL) | MIC [4]: 23.3 µM (≈ 64 µg/mL) | MIC (Escherichia coli UB1005): 5.82 µM (≈ 16 µg/mL) | MIC [5]: 5.82 µM (≈ 16 µg/mL) | MIC [6]: 23.3 µM (≈ 64 µg/mL) | MIC [7]: 11.6 µM (≈ 32 µg/mL) | MIC [8]: 2.91 µM (≈ 7.99 µg/mL) | MIC [9]: 2.91 µM (≈ 7.99 µg/mL)
Compound: CC[C@H](C)[C@H](NC(=O)[C@H](CC(C)C)NC(=O)CNC(=O)[C@H](Cc1cnc[nH]1)NC(=O)[C@@H](NC(=O)[C@H](Cc1c[nH]c2ccccc12)NC(=O)[C@H](CCCCN)NC(=O)CNC(=O)[C@@H](NC(=O)[C@H](Cc1cnc[nH]1)NC(=O)[C@H](Cc1cnc[nH]1)NC(=O)[C@@H](NC(=O)CNC(=O)[C@H](Cc1cnc[nH]1)NC(=O)[C@H](Cc1ccccc1)NC(=O)[C@H](CC(C)C)NC(=O)[C@H](CC(C)C)NC(=O)CNC(=O)[C@H](CC(C)C)NC(=O)[C@@H](N)Cc1ccccc1)C(C)C)C(C)C)[C@@H](C)CC)C(=O)N[C@@H](Cc1cnc[nH]1)C(=O)NCC(=O)N[C@@H](Cc1cnc[nH]1)C(=O)N[C@@H](Cc1cnc[nH]1)C(C)=O [FLGLLFHGVHHVGKWIHGLIHGHH]

MIC [10]: 6.05 µM (≈ 16 µg/mL)
Compound: CC(C)C[C@H](NC(=O)[C@H](CCCCN)NC(=O)CNC(=O)[C@H](CCCCN)NC(=O)[C@H](Cc1ccccc1)NC(=O)[C@H](CCCCN)NC(=O)[C@H](Cc1c[nH]c2ccccc12)NC(=O)[C@H](CCCN=C(N)N)NC(=O)[C@H](Cc1ccccc1)NC(=O)[C@H](CCCN=C(N)N)NC(=O)[C@H](CCCN=C(N)N)NC(=O)[C@H](Cc1ccc(O)cc1)NC(=O)[C@H](CCCCN)NC(=O)[C@H](CCCCN)NC(=O)[C@H](CS)NC(=O)CN)C(=O)N[C@@H](Cc1c[nH]c2ccccc12)C(=O)N[C@@H](CC(C)C)C(=O)N[C@@H](Cc1c[nH]c2ccccc12)C(=O)NCC(N)=O [GCKKYRRFRWKFKGKLWLWG]
MIC (Vibrio cholerae CUN 09): 12.1 µM (≈ 32 µg/mL)

MIC [23]: ≥ 1960 µM | MIC [24]: ≥ 1960 µM | MIC (Listeria monocytogenes): ≥ 1960 µM | MIC [25]: ≥ 1960 µM | MIC [26]: ≥ 1960 µM
Compound: CSCC[C@H](N)C(=O)N[C@@H](CCCN=C(N)N)C(=O)NCC(=O)N[C@@H](CO)C(=O)N[C@@H](Cc1cnc[nH]1)C(=O)N[C@@H](Cc1cnc[nH]1)C(=O)N[C@@H](Cc1cnc[nH]1)C(=O)N[C@@H](Cc1cnc[nH]1)C(=O)N[C@@H](Cc1cnc[nH]1)C(=O)N[C@@H](Cc1cnc[nH]1)C(=O)NCC(=O)N[C@@H](CO)C(=O)N[C@@H](CO)C(=O)NCC(=O)N[C@@H](CCC(=O)O)C(=O)N[C@@H](CC(N)=O)C(=O)N[C@@H](CC(C)C)C(=O)N[C@@H](Cc1ccc(O)cc1)C(=O)N[C@@H](Cc1ccccc1)C(=O)N[C@@H](CCC(N)=O)C(=O)N[C@@H](CO)C(=O)N[C@@H](CC(C)C)C(=O)O [MRGSHHHHHHGSSGENLYFQSL]
